Reference: the NIST ThermoML archive (doi:10.1021/je700300y)

Legend:
[1] = xn = mol fraction of the nth substance listed; settings: 101 kPa, Liquid
[2] = 101.33 kPa, Liquid
[3] = refractive index (Na D-line) (dimensionless); settings: 298.15 K; 101.33 kPa; Liquid; Standard Abbe refractometry

CO [methanol] + CCO
mass density [kg/m3], [1]
Settings	x1 = 0.0729	x1 = 0.1632	x1 = 0.3251	x1 = 0.5592	x1 = 0.6349	x1 = 0.7182	x1 = 0.8027	x1 = 0.8714	x1 = 0.9485
283.15 K	798.11	798.27	798.58	799.14	799.35	799.6	799.88	800.12	800.43
288.15 K	793.83	793.97	794.22	794.68	794.85	795.07	795.3	795.51	795.78
293.15 K	789.54	789.64	789.84	790.2	790.34	790.52	790.71	790.89	791.1
298.15 K	785.23	785.3	785.44	785.7	785.81	785.95	786.11	786.25	786.43
303.15 K	780.89	780.94	781.02	781.19	781.26	781.36	781.49	781.59	781.73
308.15 K	776.52	776.54	776.57	776.65	776.69	776.76	776.84	776.9	777.01
313.15 K	772.12	772.11	772.09	772.08	772.09	772.12	772.16	772.19	772.26

CO [methanol]
[2]
Settings	mass density [kg/m3]
283.15 K	800.67
288.15 K	795.98
293.15 K	791.28
298.15 K	786.57
303.15 K	781.85
308.15 K	777.1
313.15 K	772.32

Settings	refractive index
[3]	1.327

O [water]
Settings	refractive index
[3]	1.3326

CCO [ethanol]
[2]
Settings	mass density [kg/m3]
283.15 K	797.99
288.15 K	793.73
293.15 K	789.47
298.15 K	785.18
303.15 K	780.87
308.15 K	776.52
313.15 K	772.14

Settings	refractive index
[3]	1.3595
